Here are results for 10 compounds from patent US10626103B2, “Inhibitor of lysine specific demethylase-1” (CELGENE QUANTICEL RESEARCH, INC., priority 2014, dated 2020).

For assay [1], the target named is full-length human LSD1 (Homo sapiens (Human), UniProt O60341). The experiment in a line: In vitro enzyme inhibition assay LSD-1 (TR-FRET). It counts as biochemical. The following applies: H3K4me1-biotin peptide. In a few lines:
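Demethylase activity of full-length human LSD1 was detected by TR-FRET after 1 hour incubation at room temperature. Excitation was at 320 nm, with emission at 615 nm and 665 nm. IC50 values were derived from the inhibition data.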
(Time-resolved FRET reads energy transfer from a long-lived donor to a nearby acceptor.)

The test system of assay [2] is CD11b expression in THP-1 (AML) cells. Put plainly: LSD1 CD11b cellular assay (flow cytometry). It counts as cell-based. The following applies: Homo sapiens, 96 h, THP-1 cells, 4 days. In a few lines:
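THP-1 cells were exposed to serially diluted compounds (0.2% DMSO final) for 4 days at 37 °C. CD11b expression was measured by flow cytometry with DAPI staining. The percent of CD11b-positive cells per concentration gave the IC50 curve.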
A general note: A flow cytometer gives signals particle by particle.

SMILES strings stand for the structures.

One may read the IC50 as the midpoint of a concentration-inhibition curve. Read a high IC50 as a need for much substance. For the compound `CN(C)[C@H]1CCN(C(=O)c2cn(-c3ccc4nn(C)cc4c3)c(-c3ccc(C#N)c(F)c3)n2)C1` [Example 99, 4-[4-[(3S)-3-(Dimethylamino)pyrrolidine-1-carbonyl]-1-(2-methylindazol-5-yl)imidazol-2-yl]-2-fluorobenzonitrile], the results for the IC50 in assay [1] and in assay [2] were under 100 nM and 100 to 1000 nM, respectively.
With `CN(C)[C@H]1CCN(C(=O)c2nc(-c3ccc(C#N)c(F)c3)n(-c3ccc4nn(C)cc4c3)c2Cl)C1` [Example 100, 4-[5-Chloro-4-[(3S)-3-(dimethylamino)pyrrolidine-1-carbonyl]-1-(2-methylindazol-5-yl)imidazol-2-yl]-2-fluorobenzonitrile], the IC50 in assay [1] was under 100 nM; in assay [2], 100 to 1000 nM.
The corresponding values for `CN(C)[C@H]1CCN(C(=O)c2nc(-c3ccc(C#N)c(F)c3)n(-c3ccc4nn(C)c(Cl)c4c3)c2Cl)C1` [Example 101, 4-[5-Chloro-1-(3-chloro-2-methylindazol-5-yl)-4-[(3S)-3-(dimethylamino)pyrrolidine-1-carbonyl]imidazol-2-yl]-2-fluorobenzonitrile] are under 100 nM and under 100 nM.
In the case of `Cc1c2cc(-n3c(-c4ccc(C#N)c(F)c4)nc(C(=O)N4CC[C@H](N(C)C)C4)c3C)ccc2nn1C` [Example 102, 4-[4-[(3S)-3-(Dimethylamino)pyrrolidine-1-carbonyl]-1-(2,3-dimethylindazol-5-yl)-5-methylimidazol-2-yl]-2-fluorobenzonitrile], the IC50 in assay [1] and in assay [2] was under 100 nM throughout.
Consider `CN[C@H]1CCN(C(=O)c2nc(-c3ccc(C#N)c(F)c3)n(-c3ccc4nn(C)c(C)c4c3)c2C)C1` [Example 103, 4-[1-(2,3-Dimethylindazol-5-yl)-5-methyl-4-[(3S)-3-(methylamino)pyrrolidine-1-carbonyl]imidazol-2-yl]-2-fluorobenzonitrile], for which the half-inhibitory concentration (IC50) in assay [1] and in assay [2] was under 100 nM in each case.
Consider `Cc1c2cc(-n3c(-c4ccc(C#N)c(F)c4)nc(C(=O)N[C@@H]4CCCNC4)c3C)ccc2nn1C` [Example 104, 2-(4-Cyano-3-fluorophenyl)-1-(2,3-dimethylindazol-5-yl)-5-methyl-N-[(3R)-piperidin-3-yl]imidazole-4-carboxamide], for which the IC50 in assay [1] and in assay [2] was under 100 nM throughout.
`CN[C@@H]1CCCN(C(=O)c2nc(-c3ccc(C#N)c(F)c3)n(-c3ccc4nn(C)c(C)c4c3)c2C)C1` [Example 105, 4-[1-(2,3-Dimethylindazol-5-yl)-5-methyl-4-[(3R)-3-(methylamino)piperidine-1-carbonyl]imidazol-2-yl]-2-fluorobenzonitrile]: the half-maximal inhibitory concentration (IC50) in assay [1] and in assay [2] was under 100 nM throughout.
With `Cc1c(C(=O)N2CC[C@H](N(C)C)C2)nc(-c2ccc(C#N)c(F)c2)n1-c1cc2c(Cl)n(C)nc2cc1F` [Example 110, 4-[1-(3-Chloro-6-fluoro-2-methylindazol-5-yl)-4-[(3S)-3-(dimethylamino)pyrrolidine-1-carbonyl]-5-methylimidazol-2-yl]-2-fluorobenzonitrile], the IC50 in assay [1] and in assay [2] was under 100 nM each time.
Turning to `CN[C@H]1CCN(C(=O)c2nc(-c3ccc(C#N)c(F)c3)n(-c3cc4c(Cl)n(C)nc4cc3F)c2C)C1` [Example 111, 4-[1-(3-Chloro-6-fluoro-2-methylindazol-5-yl)-5-methyl-4-[(3S)-3-(methylamino)pyrrolidine-1-carbonyl]imidazol-2-yl]-2-fluorobenzonitrile], the IC50 in assay [1] and in assay [2] was under 100 nM each time.
As for `CN[C@H]1CCN(C(=O)c2cn(-c3ccc4nn(C)c(Cl)c4c3)c(-c3ccc(C#N)c(F)c3)n2)C1` [Example 113, 4-[1-(3-Chloro-2-methylindazol-5-yl)-4-[(3S)-3-(methylamino)pyrrolidine-1-carbonyl]imidazol-2-yl]-2-fluorobenzonitrile], the half-inhibitory concentration (IC50) in assay [1] and in assay [2] was under 100 nM throughout.
